Tested on: Corynebacterium xerosis
Assay: Quantitative determination of bactericidal activity with regard to microorganisms involved in axillary odors
Assay type: cell-based
Conditions: 24 hours contact, carrier gel pH 7, Log reduction classes
Description: The test described here makes possible the quantitative determination of the bactericidal activity of an active principle (i.e.: zinc salicylate/salicylic acid or triclosan) conveyed in an appropriate carrier which is neutral with regard to the bacteria tested. The bacteria studied were microorganisms under optimum growth conditions, namely microorganisms of the Corynebacterium xerosis type (Institut Pasteur Collection No. 5216) cultured on a gradient of tryptocasein soybean agar.
The day before the test, 32 g of tryptocasein soybean broth was placed in a sample tube and incubated at 35° C. The day of the test, 4 g of the test composition was added and the mixture was homogenized using a Vortex render.
A growth control without product was also prepared under the same conditions in order to confirm that the microorganisms are under favorable growth conditions throughout the duration of the test. […]
The colonies on the dishes comprising more than 20 and less than 200 colonies were counted. […]
The following two carrier gels A and B were prepared (amounts expressed as percentages by weight): […]
The bactericidal activity of each of formulations 9 and 10 (see below) with regard to the Corynebacterium xerosis strain was measured and compared to a formulation devoid of active principle.

Oc1cc(Cl)ccc1Oc1ccc(Cl)cc1Cl [Triclosan, 2,4,4′-trichloro-2′-hydroxydiphenyl ether]
Effectiveness at 24 hours with respect to the gel devoid of active principle: Excellent
